Measurements as given in patent US20260285850A1, “SUBSTITUTED OXAZOLIDINONES AND IMIDAZOLINONES AS HERBICIDES” (FMC CORPORATION, priority 2023, published 2026).

Experiments:
Type in all cases: in vivo
[1] = test system: barnyardgrass (Echinochloa crus-galli); assay: Test A preemergence soil spray, visual injury rating 0-100; details: 10 days
Summary of the method: (§1)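 Rating: visual, day 10, untreated plants as reference, 0 no effect to 100 full control. Plants were in loam-sand and were treated either preemergence via directed soil spray or postemergence at the one- to two-leaf stage.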

[2] = test system: blackgrass (Alopecurus myosuroides); assay: as above; details: 10 days
Summary of the method: as §1

corn (Zea mays) [3] = assay: as above; details: 10 days
Summary of the method: as §1

[4] = test system: green foxtail (Setaria viridis); assay: as above; details: 10 days
Summary of the method: as §1

kochia (Bassia scoparia) [5] = assay: as above; details: 10 days
Summary of the method: as §1

[6] = test system: oat, wild (wild oat, Avena fatua); assay: as above; details: 10 days
Summary of the method: as §1

[7] = test system: palmer (palmer amaranth, palmer pigweed, Amaranthus palmeri); assay: as above; details: 10 days
Summary of the method: as §1

[8] = test system: ragweed (common ragweed, Ambrosia artemisiifolia); assay: as above; details: 10 days
Summary of the method: as §1

[9] = test system: ryegrass, Italian (italian ryegrass, Lolium multiflorum); assay: as above; details: 10 days
Summary of the method: as §1

soybean (Glycine max) [10] = assay: as above; details: 10 days
Summary of the method: as §1

[11] = test system: wheat (Triticum aestivum); assay: as above; details: 10 days
Summary of the method: as §1

[12] = test system: barnyardgrass (Echinochloa crus-galli); assay: Test A postemergence application, visual injury rating 0-100
Summary of the method: as §1

[13] = test system: blackgrass (Alopecurus myosuroides); assay: as above
Summary of the method: as §1

corn (Zea mays) [14] = assay: as above
Summary of the method: as §1

[15] = test system: galium (catchweed bedstraw, Galium aparine); assay: as above; details: Postemergence, 16 g ai/ha, greenhouse 10 days; 0 no effect, 100 complete control
Summary of the method: as §1

[16] = test system: green foxtail (Setaria viridis); assay: as above
Summary of the method: as §1

[17] = test system: horseweed (Erigeron canadensis); assay: as above
Summary of the method: as §1

kochia (Bassia scoparia) [18] = assay: as above
Summary of the method: as §1

[19] = test system: oat, wild (wild oat, Avena fatua); assay: as above
Summary of the method: as §1

[20] = test system: palmer (palmer amaranth, palmer pigweed, Amaranthus palmeri); assay: as above
Summary of the method: as §1

[21] = test system: ragweed (common ragweed, Ambrosia artemisiifolia); assay: as above
Summary of the method: as §1

[22] = test system: ryegrass, Italian (italian ryegrass, Lolium multiflorum); assay: as above
Summary of the method: as §1

soybean (Glycine max) [23] = assay: as above
Summary of the method: as §1

[24] = test system: wheat (Triticum aestivum); assay: as above
Summary of the method: as §1

[25] = test system: barnyardgrass (Echinochloa crusgalli); assay: Test B flooded paddy test, visual plant response rating 0-100; details: 250 g ai/ha, Flood, applied to paddy water, evaluated after 13 days
Summary of the method: (§2)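 2-leaf plants; flood 3 cm over soil; compound dosed into paddy water; depth kept constant; greenhouse 13 d; visual scoring vs controls. Dash = no result.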

[26] = test system: ducksalad (Heteranthera limosa); assay: as above; details: 250 g ai/ha, Flood, applied to paddy water, evaluated after 13 days
Summary of the method: as §2

rice (Oryza sativa) = assay: as above; details: 250 g ai/ha, Flood, applied to paddy water, evaluated after 13 days
Summary of the method: as §2

[27] = test system: sedge, umbrella (small-flower umbrella sedge, Cyperus difformis); assay: as above; details: 250 g ai/ha, Flood, applied to paddy water, evaluated after 13 days
Summary of the method: as §2

[28] = 62 g ai/ha, 0 = no effect, 100 = complete control
[29] = 62 g ai/ha, postemergence, 10 days, 0 = no effect, 100 = complete control
[30] = Postemergence, 16 g ai/ha, greenhouse 10 days, 0 no effect, 100 complete control

CC1(C(=O)NC2CC=C(C(=O)NS(=O)(=O)C3CC3)C2)CN(c2cc(F)cc(F)c2)C(=O)O1 (racemic) [Compound 90]
Barnyardgrass plant response rating ([1]; 16 g ai/ha, 0 to 100 scale): 0 | Barnyardgrass plant response rating (0-100) [1, 28]: 0 | Blackgrass plant response rating ([2]; 16 g ai/ha, 0 to 100 scale): 0 | Blackgrass plant response rating (0-100) [2, 28]: 0 | Corn plant response rating (corn (Zea mays) [3]; 16 g ai/ha, 0 to 100 scale): 0 | Corn plant response rating (0-100) (corn (Zea mays) [3]; [28]): 0 | Foxtail, Green plant response rating ([4]; 16 g ai/ha, 0 to 100 scale): 0 | Foxtail, Green plant response rating (0-100) [4, 28]: 10 | Kochia plant response rating (kochia (Bassia scoparia) [5]; 16 g ai/ha, 0 to 100 scale): 0 | Kochia plant response rating (0-100) (kochia (Bassia scoparia) [5]; [28]): 0 | Oat, Wild plant response rating ([6]; 16 g ai/ha, 0 to 100 scale): 0 | Oat, Wild plant response rating (0-100) [6, 28]: 0 | Pigweed, Palmer plant response rating ([7]; 16 g ai/ha, 0 to 100 scale): 10 | Pigweed, Palmer plant response rating (0-100) [7, 28]: 20 | Ragweed plant response rating ([8]; 16 g ai/ha, 0 to 100 scale): 0 | Ragweed plant response rating (0-100) [8, 28]: 0 | Ryegrass, Italian plant response rating ([9]; 16 g ai/ha, 0 to 100 scale): 0 | Ryegrass, Italian plant response rating (0-100) [9, 28]: 0 | Soybean plant response rating (soybean (Glycine max) [10]; 16 g ai/ha, 0 to 100 scale): 0 | Soybean plant response rating (0-100) (soybean (Glycine max) [10]; [28]): 10 | Wheat plant response rating ([11]; 16 g ai/ha, 0 to 100 scale): 0 | Wheat plant response rating (0-100) [11, 28]: 0 | Barnyardgrass plant response rating (0-100) [12, 29]: 90 | Barnyardgrass plant response rating (0 to 100 scale) [12, 30]: 30 | Blackgrass plant response rating (0-100) [13, 29]: 80 | Blackgrass plant response rating (0 to 100 scale) [13, 30]: 10 | Corn plant response rating (0-100) (corn (Zea mays) [14]; [29]): 100 | Corn plant response rating (0 to 100 scale) (corn (Zea mays) [14]; [30]): 30 | Galium plant response rating (0 to 100 scale) [15]: 40 | Foxtail, Green plant response rating (0-100) [16, 29]: 80 | Foxtail, Green plant response rating (0 to 100 scale) [16, 30]: 0 | Horseweed plant response rating (0-100) [17, 29]: 60 | Horseweed plant response rating (0 to 100 scale) [17, 30]: 0 | Kochia plant response rating (0-100) (kochia (Bassia scoparia) [18]; [29]): 80 | Kochia plant response rating (0 to 100 scale) (kochia (Bassia scoparia) [18]; [30]): 70 | Oat, Wild plant response rating (0-100) [19, 29]: 50 | Oat, Wild plant response rating (0 to 100 scale) [19, 30]: 20 | Pigweed, Palmer plant response rating (0-100) [20, 29]: 70 | Pigweed, Palmer plant response rating (0 to 100 scale) [20, 30]: 0 | Ragweed plant response rating (0-100) [21, 29]: 30 | Ragweed plant response rating (0 to 100 scale) [21, 30]: 0 | Ryegrass, Italian plant response rating (0-100) [22, 29]: 70 | Ryegrass, Italian plant response rating (0 to 100 scale) [22, 30]: 20 | Soybean plant response rating (0-100) (soybean (Glycine max) [23]; [29]): 40 | Soybean plant response rating (0 to 100 scale) (soybean (Glycine max) [23]; [30]): 30 | Wheat plant response rating (0-100) [24, 29]: 70 | Wheat plant response rating (0 to 100 scale) [24, 30]: 40 | Plant response rating, Barnyardgrass (0 to 100 scale, 0 is no effect and 100 is complete control) [25]: 0 | Plant response rating, Ducksalad (0 to 100 scale, 0 is no effect and 100 is complete control) [26]: 0 | Plant response rating, Rice (0 to 100 scale, 0 is no effect and 100 is complete control) (rice (Oryza sativa)): 0 | Plant response rating, Sedge, Umbrella (0 to 100 scale, 0 is no effect and 100 is complete control) [27]: 0
